Test results from patent publication US10131652B2, “Pyrimidinyloxy benzene derivatives as herbicides” (E. I. DU PONT DE NEMOURS AND COMPANY, priority 2014, dated 2018).

Key:
Format in all cases: in vivo
[1] = system: ducksalad (Heteranthera limosa); assay: Test C flooded paddy test plant response; settings: Flood, 250 g ai/ha; scale of 0 to 100 where 0 is no effect and 100 is complete control; 13 to 15 days
Outline: (§1)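 Readout is a visual 0–100 score (100 = complete control) versus controls at 13–15 days. Plants at 2-leaf stage, flooded to 3 cm, treated through paddy water.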

[2] = system: rice (Oryza sativa); assay: Test C flooded paddy test plant response; settings: Flood, 250 g ai/ha; scale of 0 to 100 where 0 is no effect and 100 is complete control; 13 to 15 days
Outline: as §1

[3] = system: small-flower umbrella sedge (Cyperus difformis); assay: Test C flooded paddy test plant response; settings: Flood, 250 g ai/ha; scale of 0 to 100 where 0 is no effect and 100 is complete control; 13 to 15 days
Outline: as §1

[4] = system: barnyardgrass (Echinochloa crus-galli); assay: Test C flooded paddy test plant response; settings: Flood, 250 g ai/ha; scale of 0 to 100 where 0 is no effect and 100 is complete control; 13 to 15 days
Outline: as §1

[5] = system: ragweed (common ragweed, Ambrosia elatior); assay: Test B pre-/postemergence plant response
Outline: (§2)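 Seeds in loam–sand blend given preemergence soil spray; separately, plants at one- to two-leaf stage (2–10 cm) sprayed postemergence, compounds in non-phytotoxic solvent with surfactant. Injury rated visually versus untreated controls after ~10 days in greenhouse, 0 (no effect) to 100 (complete control).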

[6] = system: wheat (Triticum aestivum); assay: Test B pre-/postemergence plant response
Outline: as §2

[7] = system: pigweed (Amaranthus retroflexus); assay: Test B pre-/postemergence plant response
Outline: as §2

[8] = system: corn (Zea mays); assay: Test B pre-/postemergence plant response
Outline: as §2

[9] = system: barnyardgrass (Echinochloa crus-galli); assay: Test B pre-/postemergence plant response
Outline: as §2

[10] = system: kochia (Kochia scoparia); assay: Test B pre-/postemergence plant response
Outline: as §2

[11] = system: Italian ryegrass (Lolium multiflorum); assay: Test B pre-/postemergence plant response
Outline: as §2

[12] = system: giant foxtail (Setaria faberii); assay: Test B pre-/postemergence plant response
Outline: as §2

[13] = system: galium (catchweed bedstraw, Galium aparine); assay: Test B postemergence plant response
Outline: (§3)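 Weeds grown in loam soil/sand pots were sprayed postemergence at 2 to 10 cm height, one- to two-leaf stage. After approximately 10 days in greenhouse, injury was rated visually against untreated controls on a 0 (no effect) to 100 (complete control) scale; dash means no test result.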

[14] = system: blackgrass (Alopecurus myosuroides); assay: Test B postemergence plant response
Outline: as §3

[15] = 31 g ai/ha, Preemergence, 0 to 100 scale where 0 is no effect and 100 is complete control
[16] = 125 g ai/ha, postemergence, 0 to 100 scale, 0 no effect, 100 complete control
[17] = Postemergence, 31 g ai/ha, 0 to 100 scale (0 no effect, 100 complete control)
[18] = Preemergence, 125 g ai/ha, 0 to 100 scale (0 no effect, 100 complete control)
[19] = Postemergence, 500 g ai/ha, 0 to 100 scale (0 no effect, 100 complete control)
[20] = Preemergence, 500 g ai/ha, 0 to 100 scale where 0 is no effect and 100 is complete control
[21] = Postemergence, 1000 g ai/ha, 0 to 100 scale (0 no effect, 100 complete control)
[22] = Preemergence, 1000 g ai/ha, 0 to 100 scale (0 no effect, 100 complete control)

N#Cc1ccnc(-c2ccccc2Oc2ncc(Cl)cn2)c1 [Compound 188]
Ducksalad plant response rating [1]: 30 | Rice plant response rating [2]: 0 | Sedge, Umbrella plant response rating [3]: 0 | Barnyardgrass plant response rating [4]: 0 | Plant response rating, Ragweed [5, 15]: 0 | Plant response rating, Ragweed [5, 16]: 20 | Plant response rating, Ragweed [5, 17]: 0 | Ragweed plant response rating [5, 18]: 0 | Plant response rating, Wheat [6, 16]: 20 | Plant response rating, Wheat [6, 17]: 0 | Plant response rating, Pigweed [7, 15]: 0 | Plant response rating, Pigweed [7, 16]: 60 | Plant response rating, Pigweed [7, 17]: 0 | Pigweed plant response rating [7, 18]: 100 | Plant response rating, Corn [8, 16]: 30 | Plant response rating, Corn [8, 17]: 0 | Plant response rating, Barnyardgrass [9, 15]: 0 | Plant response rating, Barnyardgrass [9, 16]: 20 | Plant response rating, Barnyardgrass [9, 17]: 0 | Barnyardgrass plant response rating [9, 18]: 20 | Plant response rating, Kochia [10, 15]: 0 | Plant response rating, Kochia [10, 16]: 90 | Plant response rating, Kochia [10, 17]: 0 | Kochia plant response rating [10, 18]: 30 | Plant response rating, Ryegrass, Italian [11, 15]: 0 | Plant response rating, Ryegrass, Italian [11, 16]: 0 | Plant response rating, Ryegrass, Italian [11, 17]: 0 | Ryegrass, Italian plant response rating [11, 18]: 0 | Plant response rating, Foxtail, Giant [12, 15]: 0 | Plant response rating, Foxtail, Giant [12, 16]: 20 | Plant response rating, Foxtail, Giant [12, 17]: 0 | Foxtail, Giant plant response rating [12, 18]: 40 | Plant response rating, Galium [13, 16]: 50 | Plant response rating, Galium [13, 17]: 0 | Plant response rating, Blackgrass [14, 16]: 20 | Plant response rating, Blackgrass [14, 17]: 0

Clc1cnc(Oc2ccccc2-c2cc(Cl)cnn2)nc1 [Compound 189]
Ducksalad plant response rating [1]: 0 | Rice plant response rating [2]: 0 | Sedge, Umbrella plant response rating [3]: 0 | Barnyardgrass plant response rating [4]: 0 | Plant response rating, Ragweed [5, 15]: 0 | Plant response rating, Ragweed [5, 16]: 0 | Plant response rating, Ragweed [5, 17]: 0 | Ragweed plant response rating [5, 18]: 0 | Plant response rating, Wheat [6, 16]: 0 | Plant response rating, Wheat [6, 17]: 0 | Plant response rating, Pigweed [7, 15]: 0 | Plant response rating, Pigweed [7, 16]: 0 | Plant response rating, Pigweed [7, 17]: 0 | Pigweed plant response rating [7, 18]: 0 | Plant response rating, Corn [8, 16]: 0 | Plant response rating, Corn [8, 17]: 0 | Plant response rating, Barnyardgrass [9, 15]: 0 | Plant response rating, Barnyardgrass [9, 16]: 0 | Plant response rating, Barnyardgrass [9, 17]: 0 | Barnyardgrass plant response rating [9, 18]: 0 | Plant response rating, Kochia [10, 15]: 0 | Plant response rating, Kochia [10, 16]: 0 | Plant response rating, Kochia [10, 17]: 0 | Kochia plant response rating [10, 18]: 0 | Plant response rating, Ryegrass, Italian [11, 15]: 0 | Plant response rating, Ryegrass, Italian [11, 16]: 0 | Plant response rating, Ryegrass, Italian [11, 17]: 0 | Ryegrass, Italian plant response rating [11, 18]: 0 | Plant response rating, Foxtail, Giant [12, 15]: 0 | Plant response rating, Foxtail, Giant [12, 16]: 0 | Plant response rating, Foxtail, Giant [12, 17]: 0 | Foxtail, Giant plant response rating [12, 18]: 0 | Plant response rating, Galium [13, 16]: 0 | Plant response rating, Galium [13, 17]: 0 | Plant response rating, Blackgrass [14, 16]: 0 | Plant response rating, Blackgrass [14, 17]: 0

Clc1cnc(Oc2ccccc2-c2cc(Cl)ncn2)nc1 [Compound 190]
Ducksalad plant response rating [1]: 0 | Rice plant response rating [2]: 0 | Sedge, Umbrella plant response rating [3]: 0 | Barnyardgrass plant response rating [4]: 0 | Plant response rating, Ragweed [5, 16]: 10 | Plant response rating, Ragweed [5, 19]: 10 | Ragweed plant response rating [5, 18]: 0 | Plant response rating, Ragweed [5, 20]: 0 | Plant response rating, Wheat [6, 16]: 0 | Plant response rating, Wheat [6, 19]: 0 | Plant response rating, Pigweed [7, 16]: 0 | Plant response rating, Pigweed [7, 19]: 20 | Pigweed plant response rating [7, 18]: 0 | Plant response rating, Pigweed [7, 20]: 10 | Plant response rating, Corn [8, 16]: 0 | Plant response rating, Corn [8, 19]: 0 | Plant response rating, Barnyardgrass [9, 16]: 0 | Plant response rating, Barnyardgrass [9, 19]: 0 | Barnyardgrass plant response rating [9, 18]: 0 | Plant response rating, Barnyardgrass [9, 20]: 0 | Plant response rating, Kochia [10, 16]: 0 | Plant response rating, Kochia [10, 19]: 0 | Kochia plant response rating [10, 18]: 0 | Plant response rating, Kochia [10, 20]: 0 | Plant response rating, Ryegrass, Italian [11, 16]: 0 | Plant response rating, Ryegrass, Italian [11, 19]: 0 | Ryegrass, Italian plant response rating [11, 18]: 0 | Plant response rating, Ryegrass, Italian [11, 20]: 0 | Plant response rating, Foxtail, Giant [12, 16]: 0 | Plant response rating, Foxtail, Giant [12, 19]: 0 | Foxtail, Giant plant response rating [12, 18]: 0 | Plant response rating, Foxtail, Giant [12, 20]: 10 | Plant response rating, Galium [13, 16]: 0 | Plant response rating, Galium [13, 19]: 10 | Plant response rating, Blackgrass [14, 16]: 0 | Plant response rating, Blackgrass [14, 19]: 0

Fc1cnc(Oc2ccccc2-c2cc(Cl)sn2)nc1 [Compound 193]
Ducksalad plant response rating [1]: 65 | Rice plant response rating [2]: 0 | Sedge, Umbrella plant response rating [3]: 0 | Barnyardgrass plant response rating [4]: 0 | Plant response rating, Ragweed [5, 21]: 90 | Plant response rating, Ragweed [5, 22]: 80 | Plant response rating, Wheat [6, 21]: 20 | Plant response rating, Pigweed [7, 21]: 100 | Plant response rating, Pigweed [7, 22]: 100 | Plant response rating, Corn [8, 21]: 10 | Plant response rating, Barnyardgrass [9, 21]: 90 | Plant response rating, Barnyardgrass [9, 22]: 100 | Plant response rating, Kochia [10, 21]: 100 | Plant response rating, Kochia [10, 22]: 100 | Plant response rating, Ryegrass, Italian [11, 21]: 30 | Plant response rating, Ryegrass, Italian [11, 22]: 0 | Plant response rating, Foxtail, Giant [12, 21]: 90 | Plant response rating, Foxtail, Giant [12, 22]: 100 | Plant response rating, Galium [13, 21]: 100 | Plant response rating, Blackgrass [14, 21]: 90

Cc1cnc(Oc2ccccc2-c2cc(Cl)sn2)nc1 [Compound 194]
Ducksalad plant response rating [1]: 80 | Rice plant response rating [2]: 0 | Sedge, Umbrella plant response rating [3]: 0 | Barnyardgrass plant response rating [4]: 0 | Plant response rating, Ragweed [5, 21]: 80 | Plant response rating, Ragweed [5, 22]: 30 | Plant response rating, Wheat [6, 21]: 20 | Plant response rating, Pigweed [7, 21]: 90 | Plant response rating, Pigweed [7, 22]: 100 | Plant response rating, Corn [8, 21]: 60 | Plant response rating, Barnyardgrass [9, 21]: 100 | Plant response rating, Barnyardgrass [9, 22]: 100 | Plant response rating, Kochia [10, 21]: 100 | Plant response rating, Kochia [10, 22]: 100 | Plant response rating, Ryegrass, Italian [11, 21]: 50 | Plant response rating, Ryegrass, Italian [11, 22]: 50 | Plant response rating, Foxtail, Giant [12, 21]: 90 | Plant response rating, Foxtail, Giant [12, 22]: 100 | Plant response rating, Galium [13, 21]: 100 | Plant response rating, Blackgrass [14, 21]: 90

C=C(C)c1cc(-c2ccccc2Oc2ncc(Cl)cn2)on1 [Compound 196]
Ducksalad plant response rating [1]: 55 | Rice plant response rating [2]: 0 | Sedge, Umbrella plant response rating [3]: 70 | Barnyardgrass plant response rating [4]: 30 | Plant response rating, Ragweed [5, 15]: 0 | Plant response rating, Ragweed [5, 16]: 20 | Plant response rating, Ragweed [5, 17]: 10 | Ragweed plant response rating [5, 18]: 0 | Plant response rating, Wheat [6, 16]: 0 | Plant response rating, Wheat [6, 17]: 0 | Plant response rating, Pigweed [7, 15]: 0 | Plant response rating, Pigweed [7, 16]: 60 | Plant response rating, Pigweed [7, 17]: 20 | Pigweed plant response rating [7, 18]: 10 | Plant response rating, Corn [8, 16]: 0 | Plant response rating, Corn [8, 17]: 0 | Plant response rating, Barnyardgrass [9, 15]: 0 | Plant response rating, Barnyardgrass [9, 16]: 10 | Plant response rating, Barnyardgrass [9, 17]: 0 | Barnyardgrass plant response rating [9, 18]: 10 | Plant response rating, Kochia [10, 15]: 0 | Plant response rating, Kochia [10, 16]: 40 | Plant response rating, Kochia [10, 17]: 0 | Kochia plant response rating [10, 18]: 0 | Plant response rating, Ryegrass, Italian [11, 15]: 0 | Plant response rating, Ryegrass, Italian [11, 16]: 0 | Plant response rating, Ryegrass, Italian [11, 17]: 0 | Ryegrass, Italian plant response rating [11, 18]: 0 | Plant response rating, Foxtail, Giant [12, 15]: 0 | Plant response rating, Foxtail, Giant [12, 16]: 10 | Plant response rating, Foxtail, Giant [12, 17]: 0 | Foxtail, Giant plant response rating [12, 18]: 20 | Plant response rating, Galium [13, 16]: 100 | Plant response rating, Galium [13, 17]: 60 | Plant response rating, Blackgrass [14, 16]: 0 | Plant response rating, Blackgrass [14, 17]: 0
